Measurements published in patent US20040110676A1, “Methods for modulating cell survival” (priority 2000, published 2004).

Key:
spermatogenic cells = assay: Testicular histology, ultrastructure and TUNEL labeling; assay type: in vivo; settings: endogenous htt expression increased to 100% of normal levels
Description: Testes were removed from anesthetized animals and immediately placed in fixative (1.5% paraformaldehyde, 1.5% glutaraldehyde, 0.1 M Na cacodylate, pH 7.3). The capsules were nicked with a scalpel and then the organs left to fix for approximately 1 hour. The testes were cut into small pieces and fixed for an additional hour. The pieces were washed with buffer, post-fixed in buffered 1% OSO4 on ice for 1 hour, washed with dH2O, and stained en bloc in 1% aqueous uranyl acetate. The samples were washed with dH2O, dehydrated through a graded concentration series of ethyl alcohols, and then embedded in JEMBED™812 (J. B. EM Services Inc., Point-Claire, Quebec).
For histological analysis, thick sections (1 μm) were stained with toluidine blue and evaluated on a Zeiss Axiophot microscope. For ultrastructural analysis, thin sections were cut on an ultramicrotome, stained with lead citrate and uranyl acetate, and then viewed and photographed on a Philips 300 electron microscope operated at 60 kV.
TUNEL™ labeling (Boehringer Mannheim) was performed using standard techniques on frozen sections of testes that were lightly immersion fixed in 3% paraformaldehyde. […]
The cellular effect of the htt expression was determined by analyzing the testicular morphology of YAC rescued htt knockout mice. […]
TUNEL™ staining was used to quantitate apoptosis in the YAC rescued transgenic mice. […]

HBL-100 cells = assay: Anoikis assay on poly-HEMA coated plates, annexin-V-FITC/PI; assay type: cell-based, human
Excerpt: The human breast cell line HBL-100, transformed by the SV40 virus large T antigen with epithelial like morphology, was used to investigate the importance of the huntingtin serine residue at position 421 with respect to phosphorylation towards anoikis resistant, anchorage independent cell growth. HBL-100 cells were transfected with a 3949-15wt huntingtin vector construct, or a similar vector in which the normal serine at position 421 was mutated to an alanine residue. This mutation prevents phosphorylation from occurring at that site, which is presumed to be mediated by the kinase AKT/PKB. Cells were cultured in DMEM with 5% serum for 24 hours either on untreated tissue culture plastic or on poly-HEMA-coated plastic plates. Cells were harvested, counted and viability was assessed via annexin-V-FITC and propidium iodide (PI) staining.
HBL-100 cells were transiently transfected with a FLAG-tagged 3949-15wt htt, or a FLAG-tagged (S-A) unphosphorylatable mutant htt. Wild-type cells were also treated with LY294002, a specific PI-3 kinase inhibitor, at a concentration of 10 μM, to determine whether inhibition of kinase function could abrogate the induction of anoikis. Western blot analysis confirming the expression of both full length and 3949 huntingtin in the FLAG-tagged constructs (FIG. 26B). The presence of endogenous huntingtin in the parental cells is also shown. […]

AKT = AKT (Homo sapiens, UniProt P31749); assay: In vitro kinase reaction, phosphorylation of htt by AKT (autoradiography); assay type: biochemical; settings: S421A-mutant N-terminal one-third of htt as substrate, compared with wild-type, purified recombinant active AKT
Excerpt: Serine 421 of huntingtin can be phosphorylated by purified recombinant active AKT in vitro (FIG. 18). Immunoprecipitated recombinant protein containing the N-terminal one-third of htt was used as a substrate for AKT. Phosphorylation was detected by autoradiography since radiolabelled ATP was a component of the in vitro kinase reaction. When serine 421 was mutated to alanine (S421A), a non-phosphorylatable amino acid, 64% of the phosphorylation signal on huntingtin was ablated. […] Other sites for AKT phosphorylation are threonines 1024 and 2068.

[1] = test system: recombinant N-terminal one-third of htt with serine 421 mutated to alanine (S421A)
[2] = test system: immunoprecipitated recombinant protein containing the N-terminal one-third of htt
[3] = test system: truncated mutant htt with 128 CAG repeats in HEK 293T cells; assay: Mutant htt aggregate formation, immunofluorescence; assay type: cell-based, human; settings: vs LacZ control
Description: The C-terminus of htt was co-transfected with mutant htt and aggregate formation was induced with tamoxifen or HIP-1 expression as described herein. HEK 293T cells were transfected with truncated mutant htt with 128 CAG repeats and processed for immunofluorescence by growing cells on glass coverslips and transfecting at 30% confluency using a standard calcium phosphate protocol. At 48 hours post-transfection, the cells were treated with 35 μM tamoxifen (Sigma) for 1 hour to induce aggregate formation, then processed for immunofluorescence. The cells were fixed in 4% paraformaldehyde/PBS, permeabilised in 0.5% Triton X-100/PBS for 5 min, then incubated with anti-htt antibody MAB2166 (Chemicon) (1:2500 dilution) diluted in 0.4% BSA/PBS. Secondary antibodies conjugated to FITC (Jackson Laboratories) were used at 1:600-1:800 dilutions, and DAPI (4′,6′-diamindino-2-phenylindole, Sigma) was used as a nuclear counter-stain. Appropriate control experiments were performed to determine the specificity of the antibodies, including secondary antibody only and mock transfected cells. The cells were viewed with a Zeiss (Axioscope) microscope, digitally captured with a CCD camera (Princeton Instrument Inc.) and the images were colourised and overlapped using the Eclipse (Empix Imaging Inc.) software program. […]

HEK 293T cells = assay: MTT (WST-1) cell viability assay, tamoxifen-induced cell death; assay type: cell-based, human; settings: transfected HEK 293T cells, tamoxifen 4 hours, compared with LacZ control
Description: The survival effect of htt was measured in vitro using the MTT assay, in which a reduction in mitochondrial viability is indicative of cell death. Human embryonic kidney (HEK) 293T cells were seeded at a density of 5×10^4 cells into 96-well plates and transfected with 0.1 μg htt or LacZ DNA using a standard calcium phosphate protocol (Hackam et al. (1998) J Cell Biol. 141: 1097-105). Transfected cells in 96-well plates were treated at 48 hours post-transfection with a various concentrations of tamoxifen, a cell permeable compound that leads to caspase activation and cell death, for 4 hours. Cell viability was measured, […], by incubating the cells for 2 hours in a 1:10 dilution of WST-1 reagent (Boehringer Mannheim) and release of formazan from mitochondria was quantified by the MTT assay at 450 nm using an ELISA plate reader (Dynatech Laboratories). Mock transfected, vector only and LacZ transfected cells served as controls for transfection-related toxicity. Statistical analyses of the cell death data were performed using one-way ANOVA and Newman-Keuls post-comparison tests.

NT2 cells [4] = assay: Mutant htt (HD138)-induced cell death, apoptotic morphology scoring; assay type: cell-based, human; settings: NT2 cells co-transfected with HD138, tamoxifen stimulus, vs pyruvate kinase control, p=0.002
Description: Mutant htt protein (HD138) was co-transfected with control protein, pyruvate kinase (PK), or with htt C-terminus (C-ter) into NT2 cells (a human neuronal precursor cell line) at 40% density using lipofectamine (GibcoBRL), and cell death in response to tamoxifen stimulus was measured. Cell death was quantified in NT2 cells by co-transfection of the expression constructs with a plasmid containing the LacZ gene at a 4:1 ratio, and the cells were stained for β-galactosidase activity at 24 hours post-transfection using standard procedures. The survival effect of the htt protein was assessed by incubating transfected cells with the pro-apoptotic drug tamoxifen for 4 hrs at various concentrations. An apoptotic morphology was scored as blue-staining cells that were rounded up, blebbed and condensed, which were clearly distinguished from viable cells that were flat and had neurite-like extensions. The cell death data was analyzed for statistical significance using one-way ANOVA and Newman-Keuls post-comparison tests.

NT2 cells [5] = assay: HIP-1-induced cell death, morphology scoring; assay type: cell-based, human; settings: NT2 cells co-transfected with HIP-1, vs control protein PK, p<0.01
Description: HIP-1-induced toxicity was used to assess whether the C-terminus of htt confers protection against a toxic protein-mediated cell death, in addition to its effect on tamoxifen-induced death. NT2 cells were co-transfected with mutant HIP-1 and the C-terminus, or HIP-1 and the control pyruvate kinase cDNA, using lipofectamine (GibcoBRL). Cell death was measured by morphological changes using co-transfection of a plasmid containing the LacZ gene, as described herein. […] Thus, the protective activity of htt C-terminus may have a functional role in HIP-1-mediated cell death in vivo.

Sequence of immunoprecipitated recombinant protein containing the N-terminal one-third of htt (chain, as listed by the source): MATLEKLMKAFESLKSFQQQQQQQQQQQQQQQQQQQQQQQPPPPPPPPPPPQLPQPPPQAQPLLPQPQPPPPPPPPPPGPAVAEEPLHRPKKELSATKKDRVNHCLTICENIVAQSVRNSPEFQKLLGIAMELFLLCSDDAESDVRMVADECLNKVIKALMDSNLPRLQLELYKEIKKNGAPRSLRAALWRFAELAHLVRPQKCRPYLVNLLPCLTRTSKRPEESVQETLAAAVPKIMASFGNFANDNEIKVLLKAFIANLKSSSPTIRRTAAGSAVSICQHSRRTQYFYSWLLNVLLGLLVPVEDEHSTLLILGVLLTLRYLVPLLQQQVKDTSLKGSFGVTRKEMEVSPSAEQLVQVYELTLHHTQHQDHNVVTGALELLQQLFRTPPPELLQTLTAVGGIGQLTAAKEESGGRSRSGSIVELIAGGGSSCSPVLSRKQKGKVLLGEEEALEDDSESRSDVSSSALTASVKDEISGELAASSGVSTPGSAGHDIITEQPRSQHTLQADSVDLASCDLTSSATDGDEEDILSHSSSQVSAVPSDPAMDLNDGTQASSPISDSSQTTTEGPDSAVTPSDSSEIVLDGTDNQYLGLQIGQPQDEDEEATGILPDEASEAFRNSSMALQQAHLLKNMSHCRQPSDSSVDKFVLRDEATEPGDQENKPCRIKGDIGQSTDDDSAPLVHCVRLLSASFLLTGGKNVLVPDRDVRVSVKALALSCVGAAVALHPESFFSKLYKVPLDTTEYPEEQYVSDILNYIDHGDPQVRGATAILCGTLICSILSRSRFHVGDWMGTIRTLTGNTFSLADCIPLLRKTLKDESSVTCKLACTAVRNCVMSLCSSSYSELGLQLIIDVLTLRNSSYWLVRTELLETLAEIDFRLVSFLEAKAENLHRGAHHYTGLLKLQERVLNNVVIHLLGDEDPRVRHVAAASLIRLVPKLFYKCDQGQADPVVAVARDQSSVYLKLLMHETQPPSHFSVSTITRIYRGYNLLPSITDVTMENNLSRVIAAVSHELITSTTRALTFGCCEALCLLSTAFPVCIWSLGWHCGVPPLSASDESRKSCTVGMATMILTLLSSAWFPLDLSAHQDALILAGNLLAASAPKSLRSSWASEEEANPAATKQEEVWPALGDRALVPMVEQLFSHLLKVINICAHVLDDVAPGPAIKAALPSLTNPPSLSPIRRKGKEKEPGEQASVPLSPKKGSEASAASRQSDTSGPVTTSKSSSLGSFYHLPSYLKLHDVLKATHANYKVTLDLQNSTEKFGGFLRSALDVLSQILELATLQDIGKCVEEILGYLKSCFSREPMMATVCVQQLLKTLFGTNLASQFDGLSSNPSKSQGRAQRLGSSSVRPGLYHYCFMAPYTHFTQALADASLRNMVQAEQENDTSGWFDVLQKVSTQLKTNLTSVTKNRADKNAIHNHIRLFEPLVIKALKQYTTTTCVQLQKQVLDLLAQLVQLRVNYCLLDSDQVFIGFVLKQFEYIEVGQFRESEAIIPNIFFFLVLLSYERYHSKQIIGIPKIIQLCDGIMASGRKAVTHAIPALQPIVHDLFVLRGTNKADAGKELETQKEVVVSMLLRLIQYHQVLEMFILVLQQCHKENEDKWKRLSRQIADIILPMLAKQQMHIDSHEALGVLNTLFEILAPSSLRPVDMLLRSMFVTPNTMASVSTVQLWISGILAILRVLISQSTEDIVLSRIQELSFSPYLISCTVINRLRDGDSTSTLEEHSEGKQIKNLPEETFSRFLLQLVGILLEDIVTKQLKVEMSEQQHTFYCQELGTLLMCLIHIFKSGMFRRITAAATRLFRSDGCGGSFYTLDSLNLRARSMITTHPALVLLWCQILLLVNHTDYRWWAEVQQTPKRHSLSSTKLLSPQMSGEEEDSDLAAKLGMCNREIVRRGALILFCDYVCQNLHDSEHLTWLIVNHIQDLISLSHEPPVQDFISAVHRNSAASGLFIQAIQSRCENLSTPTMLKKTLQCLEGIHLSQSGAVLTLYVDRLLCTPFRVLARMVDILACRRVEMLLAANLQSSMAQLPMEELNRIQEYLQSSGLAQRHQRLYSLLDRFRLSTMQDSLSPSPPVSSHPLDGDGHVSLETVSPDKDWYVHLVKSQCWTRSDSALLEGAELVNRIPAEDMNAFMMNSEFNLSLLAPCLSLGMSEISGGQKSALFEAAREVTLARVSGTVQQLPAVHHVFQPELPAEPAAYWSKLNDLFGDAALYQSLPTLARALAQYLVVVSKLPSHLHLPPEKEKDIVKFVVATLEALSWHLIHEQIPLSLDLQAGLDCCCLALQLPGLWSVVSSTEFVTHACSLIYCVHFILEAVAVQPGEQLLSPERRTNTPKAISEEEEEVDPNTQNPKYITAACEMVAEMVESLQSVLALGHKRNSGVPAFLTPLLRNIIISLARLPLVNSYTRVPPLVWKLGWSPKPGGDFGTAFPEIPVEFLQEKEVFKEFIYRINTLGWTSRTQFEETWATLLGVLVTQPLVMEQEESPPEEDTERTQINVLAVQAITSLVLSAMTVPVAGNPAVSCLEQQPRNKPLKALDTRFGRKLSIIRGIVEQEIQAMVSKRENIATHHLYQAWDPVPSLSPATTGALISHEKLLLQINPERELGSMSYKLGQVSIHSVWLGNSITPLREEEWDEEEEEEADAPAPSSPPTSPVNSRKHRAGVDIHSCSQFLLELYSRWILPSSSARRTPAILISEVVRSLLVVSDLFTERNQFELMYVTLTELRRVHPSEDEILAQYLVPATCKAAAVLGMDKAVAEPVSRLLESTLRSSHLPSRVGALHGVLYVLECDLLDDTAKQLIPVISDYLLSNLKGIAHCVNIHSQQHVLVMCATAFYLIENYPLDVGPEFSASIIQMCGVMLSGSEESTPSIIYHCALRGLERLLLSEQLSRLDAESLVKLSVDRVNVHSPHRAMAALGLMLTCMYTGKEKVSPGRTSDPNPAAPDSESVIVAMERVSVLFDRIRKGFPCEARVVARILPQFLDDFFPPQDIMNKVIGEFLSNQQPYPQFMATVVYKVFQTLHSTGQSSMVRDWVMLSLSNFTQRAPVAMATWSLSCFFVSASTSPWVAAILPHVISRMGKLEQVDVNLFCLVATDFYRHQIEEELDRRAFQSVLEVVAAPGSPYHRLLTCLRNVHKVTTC
Sequence of recombinant N-terminal one-third of htt with serine 421 mutated to alanine (S421A) (chain, as listed by the source S421A): as the sequence (chain, as listed by the source) above, with S421A counted along it
Sequence of AKT (P31749 whole entry): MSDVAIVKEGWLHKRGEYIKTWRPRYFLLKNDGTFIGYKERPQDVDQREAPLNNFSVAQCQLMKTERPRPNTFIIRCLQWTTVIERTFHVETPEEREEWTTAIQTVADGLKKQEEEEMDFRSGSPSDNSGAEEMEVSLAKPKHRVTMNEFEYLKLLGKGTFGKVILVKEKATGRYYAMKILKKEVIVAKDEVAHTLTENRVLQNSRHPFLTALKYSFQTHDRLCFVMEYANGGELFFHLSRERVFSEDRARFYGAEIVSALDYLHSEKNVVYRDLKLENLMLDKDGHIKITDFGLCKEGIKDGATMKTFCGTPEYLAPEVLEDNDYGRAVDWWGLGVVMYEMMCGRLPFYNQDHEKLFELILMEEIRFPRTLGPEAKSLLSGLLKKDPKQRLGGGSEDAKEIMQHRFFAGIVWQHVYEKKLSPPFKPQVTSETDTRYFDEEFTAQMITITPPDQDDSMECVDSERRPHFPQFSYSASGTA

Substance: endogenous htt: murine wild-type htt expressed from the Hdh gene
- effect on degenerative testicular phenotype of YAC72 mice (spermatogenic cells): completely rescued the degenerative testicular phenotype

Substance: S421A: htt with serine 421 replaced by alanine, unphosphorylatable
- anoikis resistant growth in detached state (kinase inhibition study) (HBL-100 cells; HBL-100 cells transiently transfected with FLAG-tagged constructs, LY294002 10 μM): grew poorly in a detached state
- anoikis resistance, growth attached or detached (HBL-100 cells; transfected HBL-100 cells, 24 hours, poly-HEMA): behaved similarly to untransfected cells
- phosphorylation signal on huntingtin ablated (AKT): 64%

Substance: purified recombinant active AKT
- phosphorylation signal ablated (autoradiography, in vitro kinase reaction) [1]: 64% of the phosphorylation signal on huntingtin was ablated
- phosphorylation detected by autoradiography (in vitro kinase reaction with radiolabelled ATP) [2]: Serine 421 of huntingtin can be phosphorylated by purified recombinant active AKT in vitro

Substance: htt C-terminus: C-terminal fragment of huntingtin, e.g. amino acids 585-3144 of SEQ ID NO: 1, expressed by transfection
- number of aggregates formed by truncated mutant htt (1955-128) ([3]; aggregates induced by HIP-1 expression): reduces the number of aggregates
- number of aggregates formed by truncated mutant htt (1955-128) ([3]; aggregates induced by tamoxifen stimulus (35 μM, 1 hour)): reduces the number of aggregates
- tamoxifen-induced cell death (mitochondrial viability) (HEK 293T cells): protects HEK 293T cells from tamoxifen-induced cell death
- HD138-dependent cell death (NT2 cells [4]): reduced HD138-dependent cell death
- HIP-1 mediated cell death (NT2 cells [5]): reduced HIP-1 mediated cell death
